This note sets out measurements from patent publication US9296723B2, “NAMPT inhibitors” (AbbVie Inc., priority 2012, dated 2016).

The target in experiment [1] is T1, NAMPT (Homo sapiens, UniProt P43490). As to the kind of experiment: Time-Resolved Fluorescence Resonance Energy Transfer (TR-FRET) Binding Assay of NAMPT. The settings on record: 6.8 nM NAMPT, 200 nM probe, equilibrated 3 hours, no substrates. In outline:
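IC50s come from four-parameter logistic fits of control-normalized Em520/Em495 TR-FRET ratios (Ex 337 nm) against compound concentration. Before reading, enzyme, probe, antibody and compound equilibrated for 3 h at room temperature.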
On the technique in general: TR-FRET usually uses a lanthanide donor and a delayed reading to cut background.

Experiment [2] has as its target T1, NAMPT. As to the kind of experiment: TR-FRET Binding Assay of NAMPT with PRPP. The settings on record: 2 nM NAMPT, 2 nM probe, 200 µM PRPP and 2.5 mM ATP, equilibrated 16 hours. Summed up: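 Substrates present: PRPP at 200 µM and ATP at 2.5 mM, final, alongside 2 nM enzyme, 2 nM tracer and 1 nM terbium anti-His donor in 2% DMSO. A 16-hour equilibration preceded the time-resolved FRET read, allowing compounds to be enzymatically modified.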

For the next experiment, the system named is PC3 cells. As to the kind of experiment: NAMPT Cell Proliferation Assay (Cell Titer Glo). It counts as cell-based. The settings on record: Homo sapiens, PC-3, 120 h, incubated 5 days, cell viability. Summed up:
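Viability measured by Cell Titer Glo luminescence after 5-day exposure of attached PC3 cells to compound, dosed as 10-fold serial dilutions ([…]) in RPMI/10% FBS at 37 °C and 5% CO2. Percent inhibition fitted to sigmoidal dose-response curves for IC50.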
For orientation: Cellular ATP, detected with luciferase, serves as a proxy for viable cell number.

T1 sequence (P43490 whole entry): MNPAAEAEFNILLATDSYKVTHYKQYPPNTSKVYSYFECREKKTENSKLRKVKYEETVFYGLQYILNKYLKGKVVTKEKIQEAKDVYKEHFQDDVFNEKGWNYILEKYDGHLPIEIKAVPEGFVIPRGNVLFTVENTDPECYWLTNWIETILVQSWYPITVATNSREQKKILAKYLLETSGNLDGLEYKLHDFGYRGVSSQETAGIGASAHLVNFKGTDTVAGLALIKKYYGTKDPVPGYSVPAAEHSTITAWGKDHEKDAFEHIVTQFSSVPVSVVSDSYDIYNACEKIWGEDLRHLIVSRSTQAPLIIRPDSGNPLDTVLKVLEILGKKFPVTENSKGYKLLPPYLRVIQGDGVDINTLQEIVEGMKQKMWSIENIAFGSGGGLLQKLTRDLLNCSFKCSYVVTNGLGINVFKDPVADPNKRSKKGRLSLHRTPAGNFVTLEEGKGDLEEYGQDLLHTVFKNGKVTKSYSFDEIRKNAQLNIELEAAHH

Broadly, the IC50 is the midpoint of a concentration-inhibition curve. A low value points to greater potency. For the molecule `O=C(Nc1ccc(OC2CCN(C(=O)c3ccsc3)CC2)cc1)N1CC(c2cccnc2)C1` [Example 33, 3-(pyridin-3-yl)-N-(4-{[1-(thiophen-3-ylcarbonyl)piperidin-4-yl]oxy}phenyl)azetidine-1-carboxamide], the IC50 worked out at 56.1 nM on NAMPT [1], 0.43 nM on NAMPT [2] and 68.7 nM in the experiment with PC3 cells.
In the case of `O=C1CC[C@@H](C(=O)N2CC[C@@H](Oc3ccc(NC(=O)N4CC(c5cccnc5)C4)cc3)C2)N1` [Example 313, N-(4-{[(3R)-1-(5-oxo-L-prolyl)pyrrolidin-3-yl]oxy}phenyl)-3-(pyridin-3-yl)azetidine-1-carboxamide], the values for the 50% inhibitory concentration (IC50) on NAMPT [1], at NAMPT [2] and with PC3 cells were 369 nM, 0.187 nM and 4590 nM, respectively.
With `CCCCC(=O)N1CC(Oc2ccc(NC(=O)N3CC(c4cccnc4)C3)cc2)C1` [Example 117, N-{4-[(1-pentanoylazetidin-3-yl)oxy]phenyl}-3-(pyridin-3-yl)azetidine-1-carboxamide], the IC50 was 18.8 nM at NAMPT [1], 0.327 nM on NAMPT [2] and 9.83 nM with PC3 cells.
For `O=C(CN1CCOCC1)N1CCC(c2ccc(NC(=O)N3CC(c4cccnc4)C3)cc2)CC1` [Example 187, N-{4-[1-(morpholin-4-ylacetyl)piperidin-4-yl]phenyl}-3-(pyridin-3-yl)azetidine-1-carboxamide], the IC50 at NAMPT [1] came out at 39.3 nM; at NAMPT [2], 0.292 nM; with PC3 cells, 86.3 nM.
Take `O=C1CC[C@H](C(=O)N2CC[C@@H](Oc3ccc(NC(=O)N4CC(c5cccnc5)C4)cc3)C2)N1` [Example 305, N-(4-{[(3R)-1-(5-oxo-D-prolyl)pyrrolidin-3-yl]oxy}phenyl)-3-(pyridin-3-yl)azetidine-1-carboxamide]: the results for the IC50 at NAMPT [1], on NAMPT [2] and in the experiment on PC3 cells were 435 nM, 0.211 nM and 1820 nM, respectively.
Consider `CC(C)(C)OC(=O)N1CCC(c2ccc(NC(=O)N3CC(c4cccnc4F)C3)cc2)CC1` [Example 116, tert-butyl 4-[4-({[3-(2-fluoropyridin-3-yl)azetidin-1-yl]carbonyl}amino)phenyl]piperidine-1-carboxylate], for which the IC50 at NAMPT [1] was determined as 26.7 nM; on NAMPT [2] it was 0.744 nM; with PC3 cells it was 135 nM.
As for `CN1CCN(CC(=O)N2CC[C@@H](Oc3ccc(NC(=O)N4CC(c5cccnc5)C4)cc3)C2)CC1` [Example 312, N-[4-({(3R)-1-[(4-methylpiperazin-1-yl)acetyl]pyrrolidin-3-yl}oxy)phenyl]-3-(pyridin-3-yl)azetidine-1-carboxamide], the IC50 at NAMPT [1] is 311 nM; at NAMPT [2], 0.29 nM; in the experiment with PC3 cells, 211 nM.
Turning to `CCC(C)CC(=O)N1CCC(c2ccc(NC(=O)N3CC(c4cccnc4)C3)cc2)CC1` (stereo not drawn) [Example 167, N-{4-[1-(3-methylpentanoyl)piperidin-4-yl]phenyl}-3-(pyridin-3-yl)azetidine-1-carboxamide], the figures for the IC50 on NAMPT [1], at NAMPT [2] and in the experiment with PC3 cells were 8.41 nM, 0.319 nM and 23.5 nM, respectively.
On to `CCC(CC)CN1CCC(c2ccc(NC(=O)N3CC(c4cccnc4)C3)cc2)CC1` [Example 237, N-{4-[1-(2-ethylbutyl)piperidin-4-yl]phenyl}-3-(pyridin-3-yl)azetidine-1-carboxamide], for which the concentration for half-maximal inhibition (IC50) came to 581 nM on NAMPT [1], 0.257 nM at NAMPT [2] and 346 nM in the experiment on PC3 cells.
Turning to `O=C(Nc1ccc(O[C@@H]2CCN(C(=O)c3cccs3)C2)cc1)N1CC(c2cccnc2)C1` [Example 324, 3-(pyridin-3-yl)-N-(4-{[(3R)-1-(thiophen-2-ylcarbonyl)pyrrolidin-3-yl]oxy}phenyl)azetidine-1-carboxamide], the results for the IC50 on NAMPT [1], at NAMPT [2] and in the experiment with PC3 cells were 20.7 nM, 0.36 nM and 6.24 nM, respectively.
Consider `CC(C)CCC(=O)N1CCC(Oc2ccc(NC(=O)N3CC(c4cccnc4)C3)cc2)CC1` [Example 42, N-(4-{[1-(4-methylpentanoyl)piperidin-4-yl]oxy}phenyl)-3-(pyridin-3-yl)azetidine-1-carboxamide], for which the IC50 on NAMPT [1] was 43.8 nM; on NAMPT [2] it was 0.27 nM; with PC3 cells, 100 nM.
For the molecule `O=C(CCN1CCOCC1)N1CCC(Oc2ccc(NC(=O)N3CC(c4cccnc4)C3)cc2)CC1` [Example 37, N-[4-({1-[3-(morpholin-4-yl)propanoyl]piperidin-4-yl}oxy)phenyl]-3-(pyridin-3-yl)azetidine-1-carboxamide], the IC50 stood at 85.4 nM on NAMPT [1], 0.174 nM on NAMPT [2] and 72.9 nM with PC3 cells.
Regarding `CC(C)CCC(=O)N1CCC(c2ccc(NC(=O)N3CC(c4cccnc4)C3)cc2)C1` (stereo not drawn) [Example 275, N-{4-[1-(4-methylpentanoyl)pyrrolidin-3-yl]phenyl}-3-(pyridin-3-yl)azetidine-1-carboxamide], the values for the IC50 on NAMPT [1], at NAMPT [2] and in the experiment with PC3 cells were 38.3 nM, 0.363 nM and 34.5 nM, respectively.
As to `O=C(CC1CCCC1)N1CCC(c2ccc(NC(=O)N3CC(c4cccnc4)C3)cc2)CC1` [Example 196, N-{4-[1-(cyclopentylacetyl)piperidin-4-yl]phenyl}-3-(pyridin-3-yl)azetidine-1-carboxamide], the IC50 at NAMPT [1] was 15 nM; on NAMPT [2], 0.281 nM; with PC3 cells it was 64.6 nM.
Consider `O=C(Nc1ccc(C2CN(C(=O)c3ccoc3)C2)cc1)N1CC(c2cccnc2)C1` [Example 216, N-{4-[1-(furan-3-ylcarbonyl)azetidin-3-yl]phenyl}-3-(pyridin-3-yl)azetidine-1-carboxamide], for which the IC50 stood at 18.4 nM on NAMPT [1], 0.256 nM on NAMPT [2] and 20.5 nM in the experiment on PC3 cells.
For `O=C(Nc1ccc(C2=CCN(C(=O)C3CC3)CC2)cc1)N1CC(c2cccnc2)C1` [Example 25, N-{4-[1-(cyclopropylcarbonyl)-1,2,3,6-tetrahydropyridin-4-yl]phenyl}-3-(pyridin-3-yl)azetidine-1-carboxamide], the IC50 on NAMPT [1] came out at 37.4 nM; on NAMPT [2], 0.362 nM; with PC3 cells it was 27.1 nM.
Turning to `CN(C)CCC(=O)N1CC(Oc2ccc(NC(=O)N3CC(c4cccnc4)C3)cc2)C1` [Example 150, N-(4-{[1-(N,N-dimethyl-beta-alanyl)azetidin-3-yl]oxy}phenyl)-3-(pyridin-3-yl)azetidine-1-carboxamide], the IC50 on NAMPT [1] amounted to 435 nM; on NAMPT [2], 2.85 nM; with PC3 cells, 1050 nM.
As for `O=C(Nc1ccc(C2CN(C(=O)c3cccs3)C2)cc1)N1CC(c2cccnc2)C1` [Example 222, 3-(pyridin-3-yl)-N-{4-[1-(thiophen-2-ylcarbonyl)azetidin-3-yl]phenyl}azetidine-1-carboxamide], the IC50 at NAMPT [1] came out at 10.7 nM; on NAMPT [2] it was 0.183 nM; in the experiment with PC3 cells, 11.9 nM.
The matching figures for `CCCCC(=O)N1CCC(c2ccc(NC(=O)N3CC(c4cccnc4)C3)cc2)CC1` [Example 163, N-[4-(1-pentanoylpiperidin-4-yl)phenyl]-3-(pyridin-3-yl)azetidine-1-carboxamide]: 7.23 nM, 0.295 nM and 34.4 nM.
In the case of `CC(C)(O)C(=O)N1CC(c2ccc(NC(=O)N3CC(c4cccnc4)C3)cc2)C1` [Example 106, N-{4-[1-(2-hydroxy-2-methylpropanoyl)azetidin-3-yl]phenyl}-3-(pyridin-3-yl)azetidine-1-carboxamide], the results for the IC50 at NAMPT [1], at NAMPT [2] and in the experiment on PC3 cells were 204 nM, 0.553 nM and 576 nM, respectively.
The matching figures for `CCC(=O)N1CCC(c2ccc(NC(=O)N3CC(c4cccnc4)C3)cc2)C1` (stereo not drawn) [Example 279, N-[4-(1-propanoylpyrrolidin-3-yl)phenyl]-3-(pyridin-3-yl)azetidine-1-carboxamide]: 92.1 nM, 0.204 nM and 47.6 nM.
Take `CCC(C)(C)C(=O)N1CCC(c2ccc(NC(=O)N3CC(c4cccnc4)C3)cc2)C1` (stereo not drawn) [Example 290, N-{4-[1-(2,2-dimethylbutanoyl)pyrrolidin-3-yl]phenyl}-3-(pyridin-3-yl)azetidine-1-carboxamide]: the values for the IC50 at NAMPT [1], on NAMPT [2] and in the experiment with PC3 cells were 11.1 nM, 0.224 nM and 10.3 nM, respectively.
The matching figures for `CC[C@H](C)C(=O)N1CC(Oc2ccc(NC(=O)N3CC(c4cccnc4)C3)cc2)C1` [Example 1, N-[4-({1-[(2S)-2-methylbutanoyl]azetidin-3-yl}oxy)phenyl]-3-(pyridin-3-yl)azetidine-1-carboxamide]: 24.9 nM, 0.873 nM and 11.7 nM.
The matching figures for `COCCOCC(=O)N1CC[C@@H](Oc2ccc(NC(=O)N3CC(c4cccnc4)C3)cc2)C1` [Example 320, N-[4-({(3R)-1-[(2-methoxyethoxy)acetyl]pyrrolidin-3-yl}oxy)phenyl]-3-(pyridin-3-yl)azetidine-1-carboxamide]: 208 nM, 0.407 nM and 155 nM.
Take `O=C(Nc1ccc(O[C@H]2CCN(C(=O)[C@@H]3CCCO3)C2)cc1)N1CC(c2cccnc2)C1` [Example 90, 3-(pyridin-3-yl)-N-[4-({(3S)-1-[(2S)-tetrahydrofuran-2-ylcarbonyl]pyrrolidin-3-yl}oxy)phenyl]azetidine-1-carboxamide]: the concentration for half-maximal inhibition (IC50) at NAMPT [1] turned out to be 404 nM; on NAMPT [2], 0.196 nM; in the experiment on PC3 cells, 686 nM.
